Measured values reported in publication PMC8346002 (International Journal of Molecular Sciences, 2021).
“Also recorded” adds a separate entry of the source. Read-outs that look alike come from different tables or passages of the source.

How the values were obtained:
[1] = molecular target: T1, histone-like nucleoid structuring protein (H-NS) (Escherichia coli, UniProt P0ACF8); assay: biochemical; format: binding
T1 construct: inferred from Ni-NTA/imidazole purification; made in house; host or cells: E. coli BL21 (DE3); over-expressing strain obtained from Dr. Hyon E. Choy, originally from Dr. Bremer's laboratory
T1 sequence (P0ACF8 whole entry): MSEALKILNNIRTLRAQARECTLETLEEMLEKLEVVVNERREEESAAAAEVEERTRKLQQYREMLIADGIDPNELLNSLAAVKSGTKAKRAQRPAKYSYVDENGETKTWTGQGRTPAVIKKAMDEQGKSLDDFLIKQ
Method: Figure 3 Determination of the dissociation constant KD for ppGpp on H-NS by fluorescence spectrometry. (a) The emission spectra of H-NS in the presence of ppGpp. While H-NS (10µM) was excited at 280 nm, the emission spectra in the presence of various concentrations of ppGpp were recorded at 25 °C. (b) The difference in fluorescence (ΔF(area)) between 322 and 336 nm against ppGpp concentrations.
(§1) Fluorescence intensities were measured at 25 °C using a F-4500 Fluorescence Spectrophotometer (Hitachi corporation). H-NS and CRP in 50 mM MOPS buffer, pH 7.5 were excited at 280 nm and the emission spectra were recorded from 290 to 400 nm under various ligand concentrations. The dissociation constant, KD, was calculated using the equation, ΔF/ΔFM = (([L] + [P] + KD) − (([L] + [P] + KD)^2 − 4·[L]·[P])^0.5)/2·[P], where ΔF, ΔFM, [P], and [L] represent fluorescence change, the maximal fluorescence change, total protein concentration, and total ligand concentration, respectively. The area below the spectra in the 15 nm ranges was used to calculate ΔF in this study. The corrections for the inner filter effect, introduced by the ligands, was performed using the formula, Fcor = F × 10^(P + ΔA)/2, where F and Fcor denote fluorescence intensity before and after the correction, whereas P and ΔA indicate the initial sample absorption at the excitation wavelength and the change in absorption introduced by ligands, respectively.

[2] = molecular target: T2, cAMP receptor protein (CRP) (Escherichia coli, UniProt P0ACJ8); format: binding; conditions: CRP 2 µM, 25 °C, 50 mM MOPS pH 7.5, excitation 280 nm, ΔF(area) 334-348 nm; read-out: KD for nucleotide ligands on CRP
T2 construct: inferred from pET21a(+) and Ni-NTA/imidazole purification); made in house; host or cells: E. coli BL21 (DE3), pET21a(+)
Method: Figure 1 Binding of ppGpp to CRP determined by fluorescence spectroscopy. (a) The fluorescence Spectra of CRP in the presence of ppGpp. Following excitation at 280 nm, the emission spectra of CRP (2 µM) were recorded at 25 °C. (b) The fluorescence change (ΔF(area)) against ppGpp concentrations. Instead of using the fluorescence change at a fixed wavelength, the area below the spectra between 334 and 348 nm was used, and the area decrease (ΔF(area)) upon addition of ppGpp was utilized to calculate the extent of fluorescence quenching.
as §1

[3] = molecular target: the molecule itself; assay: SEC; size exclusion chromatography of isolated CRP, single peak; data not shown
[4] = H-NS 10 µM, 25 °C, 50 mM MOPS pH 7.5, excitation 280 nm, ΔF(area) 322-336 nm, read-out: KD for nucleotide ligands on H-NS

Molecule	Kd [2]	Kd [1, 4]	also measured
Nc1ncnc2c1ncn2[C@@H]1O[C@H](COP(=O)(O)OP(=O)(O)OP(=O)(O)O)[C@@H](O)[C@H]1O [ATP]	33 ± 4 µM	–	KD for nucleotide ligands on H-NS ([1]; H-NS 10 µM, 25 °C, 50 mM MOPS pH 7.5, excitation 280 nm, ΔF(area) 322-336 nm): does not show a saturation curve; also recorded: did not show a saturation curve
Nc1ncnc2c1ncn2[C@@H]1O[C@@H]2COP(=O)(O)O[C@H]2[C@H]1O [cAMP]	–	–	Kd [1]: 270 ± 40 µM
Nc1nc2c(ncn2[C@@H]2O[C@H](COP(=O)(O)OP(=O)(O)OP(=O)(O)O)[C@@H](O)[C@H]2O)c(=O)[nH]1 [GTP]	35 ± 3 µM	120 ± 25 µM	–
Nc1nc2c(ncn2[C@@H]2O[C@H](COP(=O)(O)OP(=O)(O)O)[C@@H](O)[C@H]2O)c(=O)[nH]1 [GDP]	62 ± 4 µM	72 ± 6 µM	–
Nc1nc2c(ncn2[C@@H]2O[C@@H]3COP(=O)(O)O[C@H]3[C@H]2O)c(=O)[nH]1 [cGMP]	17 ± 1 µM	–	–
cyclic AMP receptor protein (CRP) from Escherichia coli (natural protein, E. coli K12 MG1655, cAMP receptor protein (CRP) of E. coli K12 MG1655; the gene was amplified by PCR from genomic DNA and cloned into pET21a(+) with NdeI and XhoI; About 24 kDa on SDS-PAGE; it is inferred from the vector and the Ni-NTA column; also called CAP; source: E. coli BL21 (DE3), pET21a(+), purified (Ni-NTA, desalting column)) MVLGKPQTDPTLEWFLSHCHIHKYPSKSTLIHQGEKAETLYYIVKGSVAVLIKDEEGKEMILSYLNQGDFIGELGLFEEGQERSAWVRAKTACEVAEISYKKFRQLIQVNPDILMRLSAQMARRLQVTSEKVGNLAFLDVTGRIAQTLLNLAKQPDAMTHPDGMQIKITRQEIGQIVGCSRETVGRILKMLEDQNLISAHGKTIVVYGTR	–	–	stoichiometry N [3]: 2
